From patent US7700559B2, “Gonadotropin releasing hormone analogues conjugates with steroid hormones” (Medical Research Council, priority 2003, dated 2010)
Like-named read-outs stand apart in the source and are kept apart here. Values belong to the molecule of their own block, whether it stands above or below them. Non-standard residues stand in square brackets, D forms with d. Residues, ends and D or L forms follow the SMILES beside them. *: point of attachment. X1 = C[C@]12CC[C@H]3[C@@H](CCC4=CC(=O)CC[C@@]43C)[C@@H]1CC[C@@H]2C(=O)COC(=O)CCC(=O)*; dPhe(4-Cl) = N[C@H](Cc1ccc(Cl)cc1)C(=O)O; dPhe(4-F) = N[C@H](Cc1ccc(F)cc1)C(=O)O; d2Nal = N[C@H](Cc1ccc2ccccc2c1)C(=O)O; d3Pal = N[C@H](Cc1cccnc1)C(=O)O; ΔPro = O=C(O)[C@@H]1C=CCN1

Tests used:
[1] = test system: progesterone binding globulin (PBG); assay: Plasma protein binding assay, competition with [3H]progesterone in pregnant guinea pig plasma; conditions: for IC50: read-out: IC50, inhibition of [3H]progesterone binding to PBG
Protocol: (§1) Plasma Protein Binding Assay
(§2) Plasma protein binding was determined by the competitive binding of steroid conjugates, in the presence of [1,2,6,7-^3H]progesterone or [^3H]cortisol, to pregnant guinea pig plasma or human pregnant serum respectively. 20 μl serum was diluted with 2 ml dextran-coated charcoal solution (0.25 g dextran T-70, 2.5 g charcoal decolorizing powder, activated acid washed [Merck Ltd., Lutterworth, Leicestershire] in 500 ml PBS) and incubated at room temperature. After 30 mins the suspension was centrifuged at 3000×g for 10 minutes, the supernatant was removed and the pellet was discarded. 100 μl of diluted serum was aliquoted into centrifuge tubes, followed by 1 pmol[^3H]steroid/100 μl PBS. 100 μl PBS (total binding) or 200 pmol/100 μl unlabelled competing ligand ([…]) was added to diluted serum in duplicate. Tubes were vortexed and incubated at room temperature for 1 hour, then for an additional 15 minutes on ice. A further 750 μl dextran-coated charcoal suspension was added and incubated for 10 minutes on ice, followed by centrifugation at 4° C. for 5 minutes. The supernatant fluid was counted.

[2] = target: T1, cortisol binding globulin (CBG) (Homo sapiens, UniProt P08185); assay: Plasma protein binding assay, competition with [3H]cortisol in human pregnant serum; conditions: data not shown, read-out: IC50, prevention of [3H]cortisol binding
T1 construct: from tissue; host or cells: human pregnant serum (charcoal-stripped, diluted)
T1 sequence (P08185 23-405): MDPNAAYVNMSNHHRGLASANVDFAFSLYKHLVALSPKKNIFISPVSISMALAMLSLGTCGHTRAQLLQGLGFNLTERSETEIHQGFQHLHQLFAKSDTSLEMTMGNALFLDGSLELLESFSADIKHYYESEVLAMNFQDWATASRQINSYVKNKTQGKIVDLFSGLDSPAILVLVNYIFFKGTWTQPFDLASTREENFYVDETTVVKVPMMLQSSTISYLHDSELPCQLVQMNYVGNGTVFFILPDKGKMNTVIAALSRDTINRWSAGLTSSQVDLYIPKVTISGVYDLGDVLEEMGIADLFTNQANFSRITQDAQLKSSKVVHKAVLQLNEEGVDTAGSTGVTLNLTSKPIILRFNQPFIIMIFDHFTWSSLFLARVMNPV
Protocol: as §1, §2

[3] = test system: cycling adult female marmosets; assay: In vivo female marmoset study, inhibition of corpus luteum function; set-up: species or system Callithrix jacchus; conditions: one animal; for duration of the luteal phase after treatment: mid-luteal phase
Protocol: (§3) In Vivo Studies in the Male and Female Common Marmoset (Callithrix Jacchus)
Female marmoset studies: To identify the effective dose required to inhibit corpus luteum function, 1.0, 0.5 or 0.25 mg of GnRH antagonist-steroid conjugate was administered as subcutaneous bolus in 1 ml saline at two sites during mid-luteal phase. Progesterone concentrations were monitored by RIA. One 300 μl blood sample was withdrawn on the day prior to GnRH antagonist injection. Further blood samples of equal size were withdrawn at 0, 4 and 8 hours on day of injection and on the following 3 days. Blood samples were taken three times per week until the next ovulation.

[4] = test system: male marmosets; assay: In vivo male marmoset study, plasma testosterone after s.c. injection; set-up: species or system Callithrix jacchus; conditions: 0.5 mg s.c.
Protocol: as §3
Male marmoset studies: To determine duration of action at GnRH receptor, 0.5 mg GnRH antagonist-steroid conjugate was administered as subcutaneous bolus in 1 ml saline at two sites in six adult male marmosets. Testosterone concentrations were monitored by RIA. GnRH antagonist (0.5 mg) was administered as a subcutaneous bolus in 1 ml saline at two sites in three marmosets. Testosterone concentrations were monitored. One 300 μl blood sample was withdrawn on the day prior to GnRH antagonist injection and at 0 hours, 4 hours and 8 hours on the day of injection and on the following 3 days. Three further samples were taken during the subsequent week.

[5] = In vivo male rabbit study, disappearance of iodinated analogue from whole blood; conditions: rabbit, in vivo, iv
Protocol: In Vivo Studies in the Male Rabbit
To determine biological half-life of GnRH agonist-progesterone conjugates, 0.5 ml saline containing approximately 10,000,000 cpm of iodinated [D-Ala^6]GnRH or [D-Lys^6]GnRH-progesterone conjugate was injected as an i.v. bolus into the ear vein of a male rabbit. Rabbits were sedated with 0.4 ml Aceprom 10 (Milborrow Animal Health, Republic of South Africa) injected intramuscularly 3-4 minutes before start of experiment. A repeat injection was carried out after 2 hours. 1 ml blood samples were collected in heparinized tubes from an indwelling cannula placed in a vein of the contralateral ear. Whole blood was counted directly to determine disappearance from circulation. All experiments were carried out in accordance with Republic of South Africa regulations.

IC50 [2]: 6.7 nM
Molecule: C[C@]12CCC(=O)C=C1CC[C@@H]1[C@@H]2[C@@H](O)C[C@@]2(C)[C@H]1CC[C@]2(O)C(=O)CO [cortisol, reference compound]
inhibition of specific [3H]progesterone binding (specificity) [1]: failure of cortisol to inhibit specific [^3H]progesterone binding

Molecule: CC(=O)[C@H]1CC[C@H]2[C@@H]3CCC4=CC(=O)CC[C@]4(C)[C@H]3CC[C@]12C [progesterone, reference compound]
IC50 [1]: 96 nM
IC50 [2]: 73 nM

Molecule: CC(=O)N[C@H](Cc1ccc2ccccc2c1)C(=O)N[C@H](Cc1ccc(Cl)cc1)C(=O)N[C@H](Cc1cccnc1)C(=O)N[C@@H](CO)C(=O)N[C@@H](CCCNC(=N)N)C(=O)N[C@H](CCCCNC(=O)CCC(=O)OCC(=O)[C@H]1CC[C@H]2[C@@H]3CCC4=CC(=O)CC[C@]4(C)[C@H]3CC[C@]12C)C(=O)N[C@@H](CC(C)C)C(=O)N[C@@H](CCCNC(=N)N)C(=O)N1CCC[C@H]1C(=O)N[C@H](C)C(N)=O [antagonist A-progesterone, AcD-Nal-D-Cpa-D-Pal-Ser-Arg-D-Lys-Leu-Arg-Pro-D-Ala-NH2 conjugated to 21-hydroxyprogesterone 21-succinate at the ε amine of D-Lys at position 6] (Ac-[d2Nal][dPhe(4-Cl)][d3Pal]SR[dK](X1)LRP[dA]-NH2)
luteal regression and subsequent ovulation ([3]; 0.25 mg s.c.): full luteal regression and subsequent ovulation did not occur
plasma progesterone concentrations ([3]; 0.25 mg s.c.): transient reduction in plasma progesterone concentrations
duration of the luteal phase after treatment ([3]; 0.5 mg s.c., before 21.0±1.2 days): 11 days
duration of the luteal phase after treatment ([3]; 1.0 mg s.c., before 24.8±2.2 days): 8 days
IC50 ([1]; listed as antagonist A-progesterone conjugate): 1000 nM
IC50 ([1]; listed as antagonist peptide A-progesterone): 850 nM
day by which testosterone had recovered [4]: ≤ 6 days
effect on plasma testosterone concentrations [4]: rapidly decreased testosterone concentrations
time to which reduction in testosterone concentration was maintained post-injection [4]: at least 72 hours

second phase half-life (metabolism and renal clearance) [5]: 21 ± 3 min
Molecule: [D-Ala^6]GnRH [reference compound]

Molecule: CC(=O)N[C@H](Cc1ccc2ccccc2c1)C(=O)N[C@H](Cc1ccc(Cl)cc1)C(=O)N[C@H](Cc1cccnc1)C(=O)N[C@@H](CO)C(=O)N[C@@H](CCCNC(=N)N)C(=O)N[C@H](CCCCN)C(=O)N[C@@H](CC(C)C)C(=O)N[C@@H](CCCNC(=N)N)C(=O)N1CCC[C@H]1C(=O)N[C@H](C)C(N)=O [antagonist A, [AcD-Nal^1,D-Cpa^2,D-Pal^3,Arg^5,D-Lys^6,D-Ala^10]GnRH, reference compound] (Ac-[d2Nal][dPhe(4-Cl)][d3Pal]SR[dK]LRP[dA]-NH2)
effect on plasma testosterone concentrations [4]: rapid decline in plasma testosterone concentrations
time by which testosterone had increased again [4]: ≤ 24 h
time to which reduction in testosterone concentration was maintained post-injection [4]: 8 h

Molecule: CC(=O)N1CC=C[C@H]1C(=O)N[C@H](Cc1ccc(F)cc1)C(=O)N[C@H](Cc1c[nH]c2ccccc12)C(=O)N[C@@H](CO)C(=O)N[C@@H](Cc1ccc(O)cc1)C(=O)N[C@H](CCCCNC(=O)CCC(=O)OCC(=O)[C@H]1CC[C@H]2[C@@H]3CCC4=CC(=O)CC[C@]4(C)[C@H]3CC[C@]12C)C(=O)N[C@@H](CC(C)C)C(=O)N[C@@H](CCCNC(=N)N)C(=O)N1CCC[C@H]1C(=O)NCC(N)=O [antagonist B-progesterone, Ac-ΔPro-D-Fpa-D-Trp-Ser-Tyr-D-Lys-Leu-Arg-Pro-Gly-NH2 conjugated to 21-hydroxyprogesterone 21-succinate at the ε amine of D-Lys at position 6] (Ac-[ΔPro][dPhe(4-F)][dW]SY[dK](X1)LRPG-NH2)
IC50 ([1]; listed as antagonist B-progesterone conjugate): 530 nM
IC50 ([1]; listed as antagonist peptide B-progesterone): 450 nM
